± gives the expanded uncertainty stated by the source.
Settings: 101.33 kPa, Liquid; for speed of sound: Pulse-echo method

Row | mass density (288.15 K) [kg/m3] | speed of sound (288.15 K) [m/s] | mass density (293.15 K) [kg/m3] | speed of sound (293.15 K) [m/s] | mass density (298.15 K) [kg/m3] | speed of sound (298.15 K) [m/s] | mass density (303.15 K) [kg/m3] | speed of sound (303.15 K) [m/s] | mass density (308.15 K) [kg/m3] | speed of sound (308.15 K) [m/s] | Compound
1 | 924.348 ± 0.29 | 1306.3 ± 0.83 | 919.954 ± 0.29 | 1287.9 ± 0.83 | 915.522 ± 0.3 | 1269.9 ± 0.82 | 911.078 ± 0.31 | 1251.7 ± 0.82 | 906.642 ± 0.31 | 1234.1 ± 0.81 | CCCOCC(C)OCC(C)O (stereo not given) [1-(1-methyl-2-propoxyethoxy)-2-propanol]
2 | 742.865 ± 0.56 | 1296.1 ± 0.83 | 738.096 ± 0.57 | 1273.6 ± 0.82 | 733.301 ± 0.58 | 1250 ± 0.82 | 728.477 ± 0.58 | 1228.9 ± 0.81 | 723.625 ± 0.59 | 1205.7 ± 0.8 | CCCCN [1-butanamine]
3 | 766.115 ± 0.53 | 1289.2 ± 0.83 | 762.022 ± 0.53 | 1269.5 ± 0.82 | 757.784 ± 0.54 | 1246.7 ± 0.81 | 752.284 ± 0.55 | 1226.7 ± 0.81 | 748.17 ± 0.55 | 1207 ± 0.8 | CCCCNCCCC [dibutylamine]
4 | 781.336 ± 0.5 | 1285 ± 0.83 | 777.632 ± 0.51 | 1266.4 ± 0.82 | 773.913 ± 0.51 | 1247.6 ± 0.81 | 770.183 ± 0.52 | 1229 ± 0.81 | 766.44 ± 0.53 | 1210.4 ± 0.8 | CCCCN(CCCC)CCCC [tributylamine]

Source: the NIST ThermoML archive (doi:10.1007/s10765-009-0593-3)
